Where a name gives a salt, the structure may show the parent alone.

In the experiment the target is T1, human GlyT1c transporter (Homo sapiens, UniProt P48067).
T1 construct: expressed in transfected cells; host or cells: CHO cells (recombinant; membranes)
T1 sequence (P48067 1-706): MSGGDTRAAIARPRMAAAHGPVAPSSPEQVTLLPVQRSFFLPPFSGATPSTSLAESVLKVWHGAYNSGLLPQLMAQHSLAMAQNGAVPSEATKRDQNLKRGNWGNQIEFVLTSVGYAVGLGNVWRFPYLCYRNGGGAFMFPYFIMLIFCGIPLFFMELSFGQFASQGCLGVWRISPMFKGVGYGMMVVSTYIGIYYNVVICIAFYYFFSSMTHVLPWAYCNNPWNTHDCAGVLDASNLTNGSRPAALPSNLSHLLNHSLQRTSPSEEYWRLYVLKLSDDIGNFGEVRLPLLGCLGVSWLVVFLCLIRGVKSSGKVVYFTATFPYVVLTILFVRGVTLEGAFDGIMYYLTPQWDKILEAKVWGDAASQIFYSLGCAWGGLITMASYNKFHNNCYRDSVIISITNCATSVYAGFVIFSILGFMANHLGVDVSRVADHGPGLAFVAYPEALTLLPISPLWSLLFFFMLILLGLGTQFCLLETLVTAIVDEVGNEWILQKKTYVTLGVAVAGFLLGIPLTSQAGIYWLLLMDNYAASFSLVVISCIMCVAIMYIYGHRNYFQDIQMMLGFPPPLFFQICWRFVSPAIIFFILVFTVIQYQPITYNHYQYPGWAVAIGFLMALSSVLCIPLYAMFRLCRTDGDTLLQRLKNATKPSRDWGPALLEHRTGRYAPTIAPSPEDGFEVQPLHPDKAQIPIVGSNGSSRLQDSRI
As to the kind of experiment: Radioligand binding assay using recombinant CHO cell membranes expressing human GlyT1. Particulars: values given as bounds, read-out: radioligand binding K^iapp. On the procedure: Radioligand binding to human GlyT1c transporter-expressing membranes was carried out as described in Mezler et al., Molecular Pharmacology 74:1705-1715, 2008.
With `Cn1cc(S(=O)(=O)NCCn2cc3c(n2)C(C2(c4ccc(Cl)cc4)CCC2)NCC3)cn1` (stereo not drawn) [Example 9.6, N-(2-(7-(1-(4-Chlorophenyl)cyclobutyl)-4,5,6,7-tetrahydro-2H-pyrazolo[3,4-c]pyridin-2-yl)-ethyl)-1-methyl-1H-pyrazole-4-sulfonamide hydrochloride], the Ki was at most 1 µM.
Consider `O=S(=O)(NCCn1cc2c(n1)C(C1(c3ccc(Cl)cc3)CCC1)NCC2)c1ccccc1` (stereo not drawn) [Example 9.4, N-(2-(7-(1-(4-Chlorophenyl)cyclobutyl)-4,5,6,7-tetrahydro-2H-pyrazolo[3,4-c]pyridin-2-yl)ethyl)benzenesulfonamide hydrochloride], for which the Ki was at most 1 µM.
Turning to `O=S(=O)(CCCF)NCc1ncc2c(n1)C(C1(c3ccc(Cl)cc3)CCC1)NCC2` (stereo not drawn) [Example 8.5, N-((8-(1-(4-Chlorophenyl)cyclobutyl)-5,6,7,8-tetrahydropyrido[3,4-d]pyrimidin-2-yl)methyl)-3-fluoropropane-1-sulfonamide hydrochloride], the Ki is at most 1 µM.
For `O=S(=O)(CCCF)NCCn1ncc2c1C(C1(c3ccc(Cl)cc3)CCC1)NCC2` (stereo not drawn) [Example 7.3, N-(2-(7-(1-(4-Chlorophenyl)cyclobutyl)-4,5,6,7-tetrahydro-1H-pyrazolo[3,4-c]pyridin-1-yl)ethyl)-3-fluoropropane-1-sulfonamide hydrochloride], the Ki was at most 1 µM.
Turning to `O=S(=O)(CC1CC1)NCCn1cc2c(n1)C(C1(c3ccc(Cl)cc3)CCC1)NCC2` (stereo not drawn) [Example 9.10, N-(2-(7-(1-(4-Chlorophenyl)cyclobutyl)-4,5,6,7-tetrahydro-2H-pyrazolo[3,4-c]pyridin-2-yl)-ethyl)-1-cyclopropylmethanesulfonamide hydrochloride], the Ki is at most 1 µM.
Under `O=S(=O)(NCCn1cc2c(n1)C(C1(c3ccc(Cl)cc3)CCC1)NCC2)C1CCC1` (stereo not drawn) [Example 9.9, N-(2-(7-(1-(4-Chlorophenyl)cyclobutyl)-4,5,6,7-tetrahydro-2H-pyrazolo[3,4-c]pyridin-2-yl)-ethyl)cyclobutanesulfonamide hydrochloride] stands at most 1 µM.
As to `NCCn1cc2c(n1)C(C1(c3ccc(Cl)cc3)CCC1)NCC2` (stereo not drawn) [Example 6, 2-(7-(1-(4-Chlorophenyl)cyclobutyl)-4,5,6,7-tetrahydro-2H-pyrazolo[3,4-c]pyridin-2-yl)ethanamine dihydrochloride], the Ki is at least 10 µM.
Under `Cn1cnc(S(=O)(=O)NCc2ncc3c(n2)C(C2(c4ccc(Cl)cc4)CCC2)NCC3)c1` (stereo not drawn) [Example 8.4, N-((8-(1-(4-Chlorophenyl)cyclobutyl)-5,6,7,8-tetrahydropyrido[3,4-d]pyrimidin-2-yl)methyl)-1-methyl-1H-imidazole-4-sulfonamide hydrochloride] stands at most 1 µM; under `CCCCS(=O)(=O)NCCn1cc2c(n1)C(C1(c3ccc(Cl)cc3)CCC1)NCC2` (stereo not drawn) [Example 9.5, N-(2-(7-(1-(4-Chlorophenyl)cyclobutyl)-4,5,6,7-tetrahydro-2H-pyrazolo[3,4-c]pyridin-2-yl)-ethyl)butane-1-sulfonamide hydrochloride], at most 1 µM.
To `O=S(=O)(NCCn1cc2c(n1)C(C1(c3ccc(Cl)cc3)CCC1)NCC2)c1cccnc1` (stereo not drawn) [Example 9.12, N-(2-(7-(1-(4-Chlorophenyl)cyclobutyl)-4,5,6,7-tetrahydro-2H-pyrazolo[3,4-c]pyridin-2-yl)ethyl)pyridine-3-sulfonamide dihydrochloride] belongs at most 1 µM; to `CCCS(=O)(=O)N(C)CCn1cc2c(n1)C(C1(c3ccc(Cl)cc3)CCC1)NCC2` (stereo not drawn) [Example 10, N-(2-(7-(1-(4-chlorophenyl)cyclobutyl)-4,5,6,7-tetrahydro-2H-pyrazolo[3,4-c]pyridin-2-yl)ethyl)-N-methylpropane-1-sulfonamide hydrochloride], at most 1 µM; to `O=S(=O)(CCCF)NCCn1cc2c(n1)C(C1(c3ccc(Cl)cc3)CCC1)NCC2` (stereo not drawn) [Example 9.8, N-(2-(7-(1-(4-Chlorophenyl)cyclobutyl)-4,5,6,7-tetrahydro-2H-pyrazolo[3,4-c]pyridin-2-yl)ethyl)-3-fluoropropane-1-sulfonamide hydrochloride], at most 1 µM.
As to `Cn1cnc(S(=O)(=O)NCCn2ncc3c2C(C2(c4ccc(Cl)cc4)CCC2)NCC3)c1` (stereo not drawn) [Example 7.4, N-(2-(7-(1-(4-Chlorophenyl)cyclobutyl)-4,5,6,7-tetrahydro-1H-pyrazolo[3,4-c]pyridin-1-yl)ethyl)-1-methyl-1H-imidazole-4-sulfonamide hydrochloride], the Ki is at most 1 µM.
On to `CCCS(=O)(=O)NCCn1ncc2c1C(C1(c3ccc(Cl)cc3)CCC1)NCC2` (stereo not drawn) [Example 7.1, N-(2-(7-(1-(4-Chlorophenyl)cyclobutyl)-4,5,6,7-tetrahydro-1H-pyrazolo[3,4-c]pyridin-1-yl)ethyl)propane-1-sulfonamide hydrochloride], for which the Ki is at most 1 µM.
Under `CCCS(=O)(=O)NCCn1cc2c(n1)C(C1(c3ccc(Cl)cc3)CCC1)NCC2` (stereo not drawn) [Example 9.1, N-(2-(7-(1-(4-Chlorophenyl)cyclobutyl)-4,5,6,7-tetrahydro-2H-pyrazolo[3,4-c]pyridin-2-yl)ethyl)propane-1-sulfonamide hydrochloride] stands at most 1 µM.
Under `Cn1cnc(S(=O)(=O)NCCn2cc3c(n2)C(C2(c4ccc(Cl)cc4)CCC2)NCC3)c1` (stereo not drawn) [Example 9.7, N-(2-(7-(1-(4-Chlorophenyl)cyclobutyl)-4,5,6,7-tetrahydro-2H-pyrazolo[3,4-c]pyridin-2-yl)ethyl)-1-methyl-1H-imidazole-4-sulfonamide hydrochloride] stands at most 1 µM; under `CCCS(=O)(=O)NCCn1c2c(c3ccccc31)CCNC2C1(c2ccc(Cl)cc2)CCC1` (stereo not drawn) [Example 11, N-(2-{1-[1-(4-Chlorophenyl)cyclobutyl]-1,2,3,4-tetrahydro-9H-b-carbolin-9-yl}ethyl)propane-1-sulfonamide], at most 1 µM.
Consider `CC(C)CS(=O)(=O)NCCn1cc2c(n1)C(C1(c3ccc(Cl)cc3)CCC1)NCC2` (stereo not drawn) [Example 9.11, N-(2-(7-(1-(4-chlorophenyl)cyclobutyl)-4,5,6,7-tetrahydro-2H-pyrazolo[3,4-c]pyridin-2-yl)ethyl)-2-methylpropane-1-sulfonamide hydrochloride], for which the Ki was at most 1 µM.
As for `Cn1cc(S(=O)(=O)NCc2ncc3c(n2)C(C2(c4ccc(Cl)cc4)CCC2)NCC3)cn1` (stereo not drawn) [Example 8.3, N-((8-(1-(4-Chlorophenyl)cyclobutyl)-5,6,7,8-tetrahydropyrido[3,4-d]pyrimidin-2-yl)methyl)-1-methyl-1H-pyrazole-4-sulfonamide hydrochloride], the Ki was at most 1 µM.
Under `CS(=O)(=O)NCCn1cc2c(n1)C(C1(c3ccc(Cl)cc3)CCC1)NCC2` (stereo not drawn) [Example 9.3, N-(2-(7-(1-(4-Chlorophenyl)cyclobutyl)-4,5,6,7-tetrahydro-2H-pyrazolo[3,4-c]pyridin-2-yl)ethyl)methanesulfonamide hydrochloride] stands at most 1 µM; under `CCCS(=O)(=O)NCc1ncc2c(n1)C(C1(c3ccc(Cl)cc3)CCC1)NCC2` (stereo not drawn) [Example 8.1, N-((8-(1-(4-Chlorophenyl)cyclobutyl)-5,6,7,8-tetrahydropyrido[3,4-d]pyrimidin-2-yl)methyl)propane-1-sulfonamide hydrochloride], at most 1 µM; under `Cn1cc(S(=O)(=O)NCCn2ncc3c2C(C2(c4ccc(Cl)cc4)CCC2)NCC3)cn1` (stereo not drawn) [Example 7.2, N-(2-(7-(1-(4-Chlorophenyl)cyclobutyl)-4,5,6,7-tetrahydro-1H-pyrazolo[3,4-c]pyridin-1-yl)ethyl)-1-methyl-1H-pyrazole-4-sulfonamide hydrochloride], at most 10 µM.
To `CCS(=O)(=O)NCCn1cc2c(n1)C(C1(c3ccc(Cl)cc3)CCC1)NCC2` (stereo not drawn) [Example 9.2, N-(2-(7-(1-(4-Chlorophenyl)cyclobutyl)-4,5,6,7-tetrahydro-2H-pyrazolo[3,4-c]pyridin-2-yl)ethyl)ethanesulfonamide hydrochloride] belongs at most 10 µM; to `O=S(=O)(CC1CC1)NCc1ncc2c(n1)C(C1(c3ccc(Cl)cc3)CCC1)NCC2` (stereo not drawn) [Example 8.2, N-((8-(1-(4-Chlorophenyl)cyclobutyl)-5,6,7,8-tetrahydropyrido[3,4-d]pyrimidin-2-yl)methyl)-1-cyclopropylmethanesulfonamide hydrochloride], at most 1 µM.

The values are drawn from patent US8642587B2, “Heterocyclic compounds, pharmaceutical compositions containing them, and their use in therapy” (AbbVie Deutschland GmbH & Co. KG, priority 2009, dated 2014).
